{
  "source": "patent US20080220416A1",
  "about": "“Compositions for Inhibiting Cell Growth and Inducing Apoptosis in Cancer Cells and Methods of Use Thereof” (THE BOARD OF TRUSTEES OF THE UNIVERSITY OF ILLINOI, priority 2004, published 2008)",
  "type_in_all_cases": "cell-based, human",
  "key": {"[1]": {"test_system": "MDA-MB231 breast cancer cells", "assay": "Cytotoxicity and growth assay in MDA-MB231 breast cancer cells (SRB, TCA-precipitated protein)", "settings": "MDA-MB231; siRNA transfection", "protocol": "An invasive, estrogen-independent breast cancer cell line that spontaneously expresses high levels of Notch-1 and -4, MDA-MB231, and normal human breast cells were used to investigate whether inhibition of Notch activation or expression affects the biological behavior of breast cancer cells. Human Mammary Epithelial Cells (HMEC) were purchased from Clonetics and cultured in mammary epithelial cell basal medium (MEBM) supplemented with 52 μg/ml Bovine Pituitary Extract […], […] human recombinant Epidermal Growth Factor (hEGF), 5 μg/ml insulin, 0.5 μg/ml Hydrocortisone, 50 μg/ml Gentamicin and 50 μg/ml Amphotericin-B. MDA-MB231 (ATCC, Rockville, Md.) were cultured in DMEM medium with 10% FBS. Notch expression in HMEC and MDA-MB231 cells was silenced using highly specific RNAi. Double-stranded synthetic 21-mer RNA oligonucleotides (siRNAs) were purchased from Dharmacon (Lafayette, Colo.). […] Sequence specificity was determined by BLAST searches which determined the uniqueness of the sequences. Transfection of siRNAs was performed using Oligofectamine (Invitrogen) as recommended by the siRNA manufacturer (Dharmacon). Transfection efficiency was optimized and followed on parallel wells using DNA double stranded oligos of identical sequence to the siRNAs, labeled with biotin on one strand. Transfected cells were identified by Streptavidin-horseradish peroxidase staining (Vectastain) and counted. Transfection efficiencies around 80% were routinely obtained.\nCytotoxicity and growth of transfected cells were estimated by a standard assay used for cancer drug screening, through the total amount of TCA-precipitated cell proteins after drug treatment (Likhitwitayawuid, K et al., 1993, J Nat Prod 56:30-38): 200 μl of cell suspension (10^5 cells/ml) were added to each well in a 96-well plate. After incubation at, 37° C., in 5% CO2 (30 minutes to 72 hours depending on the time course chosen), 50 μl 50% trichloroacetic acid was added to each well. After incubation at 4° C. for 1 hour, precipitates were washed with water 4-5 times and air dried overnight. One hundred μl of SRB solution (0.4% sulforhodamine B in 1% acetic acid, filtered before use) was added to each well for 30 minutes. Wells were washed with 1% acetic acid 4-5 times and air dried. Two hundred μl 10 mM Tris base was added to each well. Plates were shaken for 5-10 minutes and OD at 490 nm (OD490) was recorded via ELISA reader. To assay matrix invasion, 300 μl of cell suspension (10^6 cells/mL in serum-free medium) were added to invasion inserts (BioCoat Matrigel Invasion Chambers, Becton Dickinson, Bedford, Mass.) and incubated for 22 hours at 37° C., 5% CO2. […] After removal of the non-invading cells from the interior of the inserts, stained invading cells were lysed in 10% acetic acid and OD595 was determined. […]"}, "[2]": {"test_system": "MDA-MB231 breast cancer cells", "assay": "Extracellular matrix invasion of MDA-MB231 cells (Matrigel Invasion Chambers)", "settings": "siRNA transfection, 22 hours", "protocol": "Cytotoxicity and growth of transfected cells were estimated by a standard assay used for cancer drug screening, through the total amount of TCA-precipitated cell proteins after drug treatment (Likhitwitayawuid, K et al., 1993, J Nat Prod 56:30-38): 200 μl of cell suspension (10^5 cells/ml) were added to each well in a 96-well plate. After incubation at, 37° C., in 5% CO2 (30 minutes to 72 hours depending on the time course chosen), 50 μl 50% trichloroacetic acid was added to each well. After incubation at 4° C. for 1 hour, precipitates were washed with water 4-5 times and air dried overnight. One hundred μl of SRB solution (0.4% sulforhodamine B in 1% acetic acid, filtered before use) was added to each well for 30 minutes. Wells were washed with 1% acetic acid 4-5 times and air dried. Two hundred μl 10 mM Tris base was added to each well. Plates were shaken for 5-10 minutes and OD at 490 nm (OD490) was recorded via ELISA reader. To assay matrix invasion, 300 μl of cell suspension (10^6 cells/mL in serum-free medium) were added to invasion inserts (BioCoat Matrigel Invasion Chambers, Becton Dickinson, Bedford, Mass.) and incubated for 22 hours at 37° C., 5% CO2. Cells were stained with 0.9% crystal violet in 10% ethanol for 20 minutes. Inserts were dipped in water several times and air dried. After removal of the non-invading cells from the interior of the inserts, stained invading cells were lysed in 10% acetic acid and OD595 was determined.\nNotch silencing was confirmed by Western blot as described above in Example 15 using commercial goat polyclonal antibodies from Santa Cruz Biotechnology to Notch-1 (C-20, Cat# sc-6014 S). For the Western blot analyses, MDA-MB231 cells were treated with 25 μM IL-X for 48 h or with 0.5, 1 or 2 μM z-Leu-Leu-Nle-CHO for 24 h. Cytotoxicity and matrix invasion assays were performed as described above in Example 15. For the cytotoxicity assays, MDA-MB231 cells were treated with […] IL-X for up to 3 days or with 0-20 μM z-Leu-Leu-Nle-CHO for up to 4 days. […]"}, "MDA-MB231 cells": {"test_system": "MDA-MB231 cells", "assay": "Cell cycle distribution of MDA-MB231 cells by flow cytometry", "settings": "siRNA transfection", "protocol": "Cell cycle analysis was performed to further study the effects of inhibition of Notch signaling in breast cancer cells. MDA-MB231 cells were treated overnight with 0-10 μM z-Leu-Leu-Nle-CHO prior to cell cycle distribution analysis by flow cytometry. Alternatively, MDA-MB231 cells were transfected with Notch-1, Notch-4 or control siRNA as described above in Example 15. For cell cycle distribution analysis by flow cytometry, z-Leu-Leu-Nle-CHO- or siRNA-treated cells (10^6) were pelleted and washed twice in PBS. Cells were then fixed in 80% methanol and stored at −20° C. until use. Fixed cells were pelleted and washed twice in PBS, and resuspended in 50 μl PI:PBS solution (50 μg/ml PI). After RNase A (100 μg/ml) treatment at 37° C. for an hour, cells were analyzed by flow cytometry using a FACScalibur instrument."}, "NOXA [3]": {"test_system": "NOXA", "assay": "NOXA antisense oligonucleotide in z-Leu-Leu-Nle-CHO-treated melanoma cells (Western blot, sub-G0 DNA content)", "settings": "RJ002L", "excerpt": "The role of NOXA in z-Leu-Leu-Nle-CHO-mediated apoptosis of melanoma cells was further evaluated using RJ002L, C8161 and MUM2B melanoma cell lines containing antisense oligonucleotide targeting NOXA. The antisense oligonucleotides (ASO) included a NOXA targeted sequence (5′-TCAGTCTACTGATTTACTGG-3′) (SEQ ID NO: 2) and a control oligonucleotide (CO) (5′-CCTTCCCTGAAGGTTCCTCC-3′) (SEQ ID NO: 3). The ASO were purchased from ISIS Pharmaceuticals Inc. (Carlsbad, Calif.) as previously described by Qin J et al., 2004, Mol Cancer Ther 3:895-902. Melanoma cells were seeded at 2×10^5 cells into 6 well plates I day before transfection. Opti-MEM (InVitrogen) was pre-incubated for 30 minutes at room temperature using a ratio of 3 μM/mL lipofectamine per 100 nmol/L to produce a final oligonucleotide concentration of 50 nmol/L. Cells were washed with PBS and transfection mix (1 ml) was added. After 4 hrs of incubation, RPMI 1640 (1 mL) containing 20% fetal bovine serum and z-Leu-Leu-Nle-CHO (10 μM) was added to the cells and the cells were incubated for 24 hrs. The treated cells were analyzed for cell viability using APO TARGET Annexin V-FITC staining kits (Biosource), for cell cycle progression and by Western blot using NOXA, Bim, Bak and β-actin antibodies as described above."}, "NOXA [4]": {"test_system": "NOXA", "assay": "NOXA antisense oligonucleotide pretreatment before proteasome inhibitors in melanoma cell lines", "settings": "MG-132, lactacystin or bortezomib; three melanoma cell lines; 24 hrs", "excerpt": "To more definitively establish a role for NOXA in the proteasome inhibitor-induced apoptotic response, three different melanoma cell lines were pre-treated with an antisense oligonucleotides (ASO). The ASOs included a NOXA targeted sequence (5′-TCAGTCTACTGATTTACTGG-3′) (SEQ ID NO: 2) and a universal scrambled control oligonucleotide (5′-TTCTACCTCGCGCGATTTAC-3′) (SEQ ID NO: 4) (FIGS. 10A, 10B and 10C), or control oligonucleotide (CO) (5′-CCTTCCCTGAAGGTTCCTCC-3′) (SEQ ID NO: 3) (FIGS. 6B and 6D). All three ASO were provided by ISIS Pharmaceuticals Inc. (Carlsbad, Calif.) as previously described by Qin et al., 2004, Mol Cancer Ther. 3:895-902). Melanoma cells were seeded at 2×10^5 cells into 6 well plates 1 day before transfection. Opti-MEM (InVitrogen) was pre-incubated for 30 minutes at room temperature using a ratio of 3 μM/mL lipofectamine per 100 nmol/L to produce a final oligonucleotide concentration of […]. Cells were washed with PBS and transfection mix (1 ml) was added. […] The treated cells were analyzed for cell viability using APO TARGET Annexin V-FITC staining kits (Biosource) and by Western blot using NOXA and β-actin antibodies as described above."}, "CaSki cells": {"test_system": "CaSki cells", "assay": "LY411,575 combinations in CaSki cells, growth inhibition and isobologram analysis", "settings": "in vitro", "protocol": "To evaluate the possibility that inhibition of Notch signaling may sensitize advanced cervical cancers to the effect of cisplatin chemotherapy because Notch-1 protects these cells from apoptosis through the AKT and NF-κB pathways, a non-peptide, benzodiazepine gamma-secretase inhibitor, LY411,575 (Wong et al., 2004, J Biol. Chem. 279:12876-82) was tested in combination with a AKT inhibitor (AKT inhibitor I) or a proteasome inhibitor (MG-132) for effects on cell growth. The latter class of drugs is thought to act primarily by preventing NF-KB activation (Adams, J, 2002, Curr Opin Oncol 14:628-634; Richardson, P, 2003, Cancer Treat Rev 29 Suppl 1:33-39) caused by proteasome-mediated degradation of IκB.\nTo determine whether LY411,575 potentiates the effect of AKT inhibitor I or MG-132, CaSki cells were treated with (a) LY411,575 (6.25 μM to 50 μM) and AKT inhibitor 1 (0.5 μM to 75 μM), or (b) LY411,575 (1.5 μM to 200 μM) and MG-132 (0.05 μM to 0.2). Following the drug treatment, the cells were tested for growth inhibition as described above. LY411,575 was synthesized according to methods well known in the art (e.g., see WO-09828268, which is incorporated by reference), and AKT inhibitor I and MG-132 were purchased from Calbiochem.\nThe IC50 values of LY411,575 in the presence of various concentrations of AKT inhibitor I or MG-132 were measured. […]"}},
  "data": [
    {"compound": "5′-AACCCTGTGCCAATGGAGGCA-3′ [Notch-4 siRNA]", "values": [
      {"measurement": "proliferation", "setting": "[1]", "value": "even stronger anti-proliferative effect in MDA-MB231 cells than Notch-1 silencing"},
      {"measurement": "extracellular matrix invasion", "setting": "[2]", "value": "significantly inhibited extracellular matrix invasion"},
      {"measurement": "cell cycle distribution", "setting": "MDA-MB231 cells", "value": "accumulation of cells in G2/M was maximal at 24 hours"}
    ]},
    {"compound": "5′-TCAGTCTACTGATTTACTGG-3′ (antisense TCAGTCTACTGATTTACTGG; listed as DNA, chemistry not given here) [NOXA ASO]", "values": [
      {"measurement": "effect on z-Leu-Leu-Nle-CHO mediated apoptosis (sub-G0 DNA content)", "setting": "NOXA [3]; C8161, MUM2B, p<0.01 versus control oligonucleotide", "value": "significantly reduced z-Leu-Leu-Nle-CHO mediated apoptosis"},
      {"measurement": "effect on z-Leu-Leu-Nle-CHO induction of NOXA, Bim, Bak", "setting": "NOXA [3]; 50 nmol/L oligonucleotide", "value": "blocked induction of NOXA, but not Bim or Bak"},
      {"measurement": "reduction of proteasome inhibitor-induced apoptotic response", "setting": "NOXA [4]", "value": "30-50%"}
    ]},
    {"compound": "C[C@H](NC(=O)[C@@H](O)c1cc(F)cc(F)c1)C(=O)N[C@@H]1C(=O)N(C)c2ccccc2-c2ccccc21", "note": "[LY411,575]", "values": [
      {"measurement": "potency relative to z-Leu-Leu-Nle-CHO", "setting": "CaSki cells", "value": "less potent than z-Leu-Leu-Nle-CHO in vitro"}
    ]}
  ]
}
